Some test systems named below: CMK; MV4-11; CHRF288-11; M07e; CMS; U937; ML-2; MOLM-13.
What all share (design): species or system AML cell lines (8); Primary HTS, single concentration about 10 uM, Cell Titer Glo viability; log10 luminescence, per cent inhibition relative to cycloheximide control
What all share (conditions): 72 h, relative to cycloheximide control, log10 luminescence; inhibitor

For `Nc1c(C(=O)c2cccc(OCCN3CCOCC3)c2)cnn1-c1ccc(F)cc1` [SJ000581103-1], the CMK %inh with CMK is recorded as 0.9343%. The compound also displayed an MV4-11 %inh with MV4-11 of 1.093%. In the assay on CHRF288-11, the CHRF288-11 %inh is listed as -1.374%. For the same compound, in the assay with M07e, the M07e %inh was 6.806%. Also, in the assay on CMS, the CMS %inh was -1.582%. Further, the U937 %inh in the assay on U937 is recorded as 7.007%. For the same compound, in the assay on ML-2, the ML-2 %inh is reported as 2.31%. In addition, in the assay with MOLM-13, the MOLM-13 %inh is -0.4893%.

On to `Nc1c(C(=O)c2cccc(CCS(N)(=O)=O)c2)cnn1-c1ccc(F)cc1` [SJ000581104-1], for which the CMK %inh in the assay with CMK turned out to be 1.701%. Moreover, in the assay on MV4-11, the MV4-11 %inh was 1.774%. The CHRF288-11 %inh in the assay on CHRF288-11 is recorded as -1.775%. In the assay on M07e, this compound had an M07e %inh of 6.935%. Moreover, the CMS %inh with CMS worked out at 3.265%. The U937 %inh in the assay on U937 is on record as 0.2995%. Further, the ML-2 %inh in the assay on ML-2 turned out to be 1.884%. In the assay with MOLM-13, the MOLM-13 %inh was -0.2243%.

Regarding `Nc1[nH]nc2nc(-c3cccs3)cc(C(F)(F)F)c12` [SJ000581105-1], the CMK %inh with CMK is -1.06%. The MV4-11 %inh in the assay with MV4-11 amounted to 7.712%. Moreover, the CHRF288-11 %inh in the assay with CHRF288-11 is -1.43%. In the assay with M07e, this compound came in with an M07e %inh of 8.033%. Further, the CMS %inh in the assay on CMS is 2.722%. For the same compound, the U937 %inh in the assay with U937 was 0.05414%. The ML-2 %inh in the assay on ML-2 amounted to 1.699%. Moreover, the MOLM-13 %inh with MOLM-13 was 17.65%.

With `COc1ccccc1CCN=C1NC(=O)/C(=C/c2ccc3ncccc3c2)S1` [SJ000581106-1], in the assay on CMK, the CMK %inh was 41.08%. In the assay with MV4-11, this compound had an MV4-11 %inh of 10.91%. Moreover, the CHRF288-11 %inh in the assay with CHRF288-11 amounted to 4.589%. Moreover, the M07e %inh in the assay with M07e came out at 24.66%. Also, the CMS %inh in the assay with CMS is recorded as 4.605%. For the same compound, in the assay with U937, the U937 %inh is 6.939%. Besides, the ML-2 %inh in the assay on ML-2 came to 10.31%. The MOLM-13 %inh in the assay on MOLM-13 turned out to be 8.02%.

For the compound `Cn1cc(C2=C(Sc3ccccc3)C(=O)NC2=O)c2ccccc21` [SJ000581108-1], the CMK %inh with CMK is recorded as 17.14%. This compound registered an MV4-11 %inh in the assay on MV4-11 of 3.129%. Moreover, the CHRF288-11 %inh in the assay with CHRF288-11 is reported as 15.38%. The compound also registered an M07e %inh in the assay on M07e of 13.92%. Moreover, the CMS %inh in the assay on CMS amounted to 5.691%. Moreover, in the assay on U937, the U937 %inh was 7.938%. In addition, the ML-2 %inh in the assay on ML-2 came to 5.065%. Further, in the assay on MOLM-13, the MOLM-13 %inh was determined as 79.89%.

On to `Cn1cc(C2=C(c3ccc4ccccc4c3)C(=O)NC2=O)c2ccccc21` [SJ000581109-1], for which the CMK %inh with CMK amounted to 22.8%. The same compound came in with an MV4-11 %inh with MV4-11 of 1.463%. In addition, the CHRF288-11 %inh in the assay with CHRF288-11 is on record as 15.54%. The compound further registered an M07e %inh in the assay on M07e of 12.46%. In addition, in the assay with CMS, the CMS %inh was found to be 2.57%. Further, the U937 %inh in the assay on U937 is given as 4.798%. In the assay with ML-2, the ML-2 %inh is listed as 4.34%. For the same compound, in the assay with MOLM-13, the MOLM-13 %inh was 1.67%.

Consider `Nc1c(C(=O)c2cccc(C(O)CO)c2)cnn1-c1ccc(F)cc1` (centres unmarked) [SJ000581110-1], for which the CMK %inh with CMK was -1.427%. This compound also returned an MV4-11 %inh with MV4-11 of 3.101%. Also, the CHRF288-11 %inh in the assay with CHRF288-11 turned out to be 9.958%. This compound came in with an M07e %inh with M07e of 7.822%. In addition, the CMS %inh in the assay with CMS is 3.504%. Further, in the assay with U937, the U937 %inh is -0.488%. Further, the ML-2 %inh in the assay on ML-2 came out at 2.206%. Further, the MOLM-13 %inh in the assay with MOLM-13 is reported as 27.67%.

Turning to `CC(=O)Nc1ccc2c(C3=C(c4cn(C)c5ccccc45)C(=O)NC3=O)cn(C)c2c1` [SJ000581111-1], the CMK %inh in the assay on CMK was 104.7%. This compound also yielded an MV4-11 %inh in the assay on MV4-11 of 74.04%. Moreover, the CHRF288-11 %inh in the assay on CHRF288-11 was 123.6%. In the assay with M07e, the M07e %inh is 89.33%. Moreover, the CMS %inh with CMS is reported as 99.23%. The U937 %inh with U937 was 75.9%. Also, the ML-2 %inh in the assay on ML-2 is given as 39.48%. In the assay with MOLM-13, the MOLM-13 %inh was 95.13%.

For the compound `CCNC(=O)[C@@H]1CCCN2C(=O)CC[C@H](NC(=O)[C@H](Cc3ccc(OP(=O)(O)O)cc3)NC(C)=O)C(=O)N12` [SJ000581112-1], the CMK %inh with CMK is listed as 0.5327%. The compound further had an MV4-11 %inh in the assay on MV4-11 of 1.373%. Moreover, in the assay on CHRF288-11, the CHRF288-11 %inh is -7.883%. Further, the M07e %inh in the assay on M07e amounted to 4.13%. In addition, in the assay on CMS, the CMS %inh is listed as -0.07964%. Moreover, in the assay with U937, the U937 %inh worked out at 0.08443%. For the same compound, the ML-2 %inh in the assay on ML-2 was determined as 2.455%. Further, the MOLM-13 %inh with MOLM-13 was 0.008932%.

For `Cn1cc(C2=C(c3ccsc3)C(=O)NC2=O)c2ccccc21` [SJ000581113-1], in the assay on CMK, the CMK %inh is reported as 4.136%. This compound also showed an MV4-11 %inh with MV4-11 of 4.067%. Besides, in the assay with CHRF288-11, the CHRF288-11 %inh was found to be 8.413%. This compound had an M07e %inh with M07e of 3.37%. Also, the CMS %inh in the assay with CMS stood at 3.6%. For the same compound, the U937 %inh in the assay with U937 came out at 0.5485%. In addition, the ML-2 %inh in the assay with ML-2 is reported as 4.351%. Besides, in the assay on MOLM-13, the MOLM-13 %inh amounted to 31.75%.

Take `CS(=O)(=O)N1CCC(Nc2ncc(C(=O)c3c(F)cccc3F)c(N)n2)CC1` [SJ000581114-1]: the CMK %inh with CMK was 18.19%. The MV4-11 %inh with MV4-11 was 0.7328%. Also, the CHRF288-11 %inh with CHRF288-11 came to 0.1318%. The M07e %inh in the assay on M07e was found to be 7.028%. Besides, in the assay with CMS, the CMS %inh is given as 2.662%. For the same compound, the U937 %inh in the assay on U937 is 3.392%. Also, in the assay on ML-2, the ML-2 %inh is on record as 1.661%. Moreover, the MOLM-13 %inh with MOLM-13 amounted to 68.54%.

With `COc1cc[nH]c1/C=C1\C(=O)Nc2ccc(F)c(I)c21` [SJ000581115-1], in the assay with CMK, the CMK %inh is listed as -0.2359%. In the assay with MV4-11, this compound had an MV4-11 %inh of 2.865%. For the same compound, in the assay with CHRF288-11, the CHRF288-11 %inh is -1.945%. This compound also displayed an M07e %inh with M07e of 4.603%. In addition, in the assay on CMS, the CMS %inh was determined as 4.321%. Besides, the U937 %inh in the assay on U937 turned out to be 3.766%. Besides, the ML-2 %inh in the assay with ML-2 is on record as 0.5185%. Besides, in the assay on MOLM-13, the MOLM-13 %inh is on record as 8.55%.

On to `CC(C)(O)Cn1c(=O)c(Oc2ccc(F)cc2F)cc2cnc(NC3CCOCC3)nc21` [SJ000581116-1], for which the CMK %inh with CMK was found to be 6.636%. The compound also came in with an MV4-11 %inh with MV4-11 of 2.584%. Further, the CHRF288-11 %inh with CHRF288-11 is recorded as -0.4946%. In the assay on M07e, this compound came in with an M07e %inh of 10.58%. Also, the CMS %inh in the assay on CMS was -1.939%. The U937 %inh in the assay on U937 is on record as 1.398%. For the same compound, in the assay on ML-2, the ML-2 %inh is 0.2616%. Besides, the MOLM-13 %inh in the assay on MOLM-13 was determined as 1.601%.

As to `Cn1c(-c2ccncc2)c(-c2ccc(F)cc2)c2ncccc21` [SJ000581117-1], the CMK %inh in the assay with CMK is on record as 3.59%. Besides, the MV4-11 %inh in the assay on MV4-11 is 3.37%. Further, the CHRF288-11 %inh in the assay with CHRF288-11 is 26.1%. In addition, the M07e %inh with M07e came to 6.194%. Besides, in the assay on CMS, the CMS %inh was 0.8281%. In the assay on U937, the U937 %inh amounted to 0.6927%. In the assay on ML-2, the ML-2 %inh is on record as -0.3566%. In addition, in the assay on MOLM-13, the MOLM-13 %inh stood at 0.427%.

Turning to `CS(=O)(=O)CCc1cccc(C(=O)c2cnn(-c3ccc(F)cc3)c2N)c1` [SJ000581118-1], the CMK %inh with CMK came out at 3.205%. The MV4-11 %inh with MV4-11 was found to be 2.402%. The CHRF288-11 %inh in the assay on CHRF288-11 was -6.13%. Also, the M07e %inh with M07e was determined as 5.628%. Also, the CMS %inh in the assay with CMS amounted to 3.108%. In addition, the U937 %inh in the assay with U937 is reported as 3.157%. Besides, the ML-2 %inh in the assay with ML-2 is 0.2726%. The MOLM-13 %inh in the assay with MOLM-13 is given as 3.918%.

Take `Cn1cc(C2=C(c3ccccc3[N+](=O)[O-])C(=O)NC2=O)c2ccccc21` [SJ000581119-1]: in the assay with CMK, the CMK %inh came out at 89.69%. Moreover, the MV4-11 %inh in the assay on MV4-11 was found to be 44.46%. The CHRF288-11 %inh in the assay with CHRF288-11 turned out to be 24.65%. Moreover, the M07e %inh in the assay with M07e came to 28.37%. In addition, the CMS %inh in the assay on CMS was 101.9%. Also, the U937 %inh in the assay on U937 came out at 6.728%. Also, in the assay with ML-2, the ML-2 %inh came out at 6.35%. Also, in the assay with MOLM-13, the MOLM-13 %inh was 15.35%.

(Values after PMC6522510 (Nature Communications, 2019).)
